For 1 compound, Km results are on record in paper PMC9080042, “Biochemical and kinetic characterization of laccase and manganese peroxidase from novel Klebsiella pneumoniae strains and their application in bioethanol production” (RSC Advances, 2018).

What all share (test): ABTS oxidation at […] nm, Lineweaver-Burk
Common to all, as to type: biochemical, Klebsiella pneumoniae

For test [1], the system named is T1, laccase (NITW715076).
T1 construct: gene lac; native extracellular enzyme from culture supernatant; ammonium sulphate, dialysis, DEAE-sepharose; 66 kDa by SDS-PAGE; gene not identified
The conditions noted are these: 0.1 M citrate buffer pH 5.0, optimum temperature (50 °C); methods call the enzyme partially purified; read-out: Laccase / K m.

The test system of test [2] is T2, laccase (NITW715076_1).
T2 construct: gene lac; native extracellular enzyme from culture supernatant; ammonium sulphate, dialysis, DEAE-sepharose; 66 kDa by SDS-PAGE; gene not identified
The conditions noted are these: 0.1 M citrate buffer pH 5.0, optimum temperature (50 °C); methods call the enzyme partially purified; read-out: Laccase / K m.

Test [3] relates to T3, laccase (NITW715076_2).
T3 construct: gene lac; native extracellular enzyme from culture supernatant; ammonium sulphate, dialysis, DEAE-sepharose; 66 kDa by SDS-PAGE; gene not identified
The note with it: 0.1 M citrate buffer pH 5.0, optimum temperature (60 °C); methods call the enzyme partially purified; read-out: Laccase / K m.

`CCn1c(=NN=c2sc3cc(S(=O)(=O)O)ccc3n2CC)sc2cc(S(=O)(=O)O)ccc21` [ABTS, 2,2′-azino-bis(3-ethylbenzothiazoline)-6-sulfonic acid]: the Km in test [1] was determined as 467 µM; in test [2] it was 3970 µM; in test [3], 380 µM.
